The source of these data is patent US10245249B2, “Pharmaceutical compositions comprising nitroxyl donors” (Cardioxyl Pharmaceuticals, Inc., priority 2013, dated 2019).

For series [1], the system named is patients with systolic heart failure. Particulars: cited from earlier work.
Series [2] concerns dogs. Nature of the series: 14-day continuous infusion tolerance studies of CXL-1020 in dogs. Type of series: in vivo. On the procedure: During in vivo trials of the nitroxyl donor CXL-1020 (N-hydroxy-2-methanesulfonylbenzene-1-sulfonamide), a 14-day study was conducted to evaluate tolerance in dogs treated with continuous infusions of CXL-1020 at dose rates of up to 90 μg/kg/min.
To further investigate this undesirable side-effect, a follow-up 14-day study in dogs was initiated.

Series [3] can be described thus: Stability of dosing solutions of compound of formula (2) stored at 25° C. (Example 11). Type of series: physicochemical. As to the method:
A series of dosing solutions of the compound of formula (2) for IV administration was assessed. The selected concentrate of compound of formula (2), prepared at 30 mg/mL in a vehicle of 30% CAPTISOL® at pH 4.0, was evaluated at low, mid, and high concentrations (0.1, 1 and 5 mg/mL, respectively) upon dilution into various dosing solutions. For dilution of the compound of formula (2) to 0.1 and 1 mg/mL, three dosing solutions were evaluated; 1) D5W, 2) D5W with 5 mM K-phosphate (pH=6), and 3) D5W with 20 mM K-phosphate (pH=6). To maintain iso-osmolality for dilutions of the compound of formula (2) to 5 mg/mL, the concentration of dextrose in the dosing solutions was reduced to 2.5% (w/v). Thus, the dosing solutions evaluated were; (1) D2.5W, (2) D2.5W with 5 mM K-phosphate (pH=6), and (3) D2.5W with 20 mM K-phosphate (pH=6).
The potential dosing solutions were assessed for visual appearance, pH, osmolality, and concentration and purity by HPLC (XBridge Phenyl Column (Waters); UV absorbance detector at 272 nm; mobile phase a step gradient of aqueous acetonitrile containing 0.1% (v/v) formic acid) after approximately 0, 16, 24, and 48 hours of storage at 25° C. […] In addition, the known degradant, the compound of formula (101), formed by release of the active HNO group, was observed after 16 hours at 25° C. in small quantities by HPLC in the dosing solutions containing phosphate buffer. […]

`CS(=O)(=O)c1ccccc1S(=O)(=O)NO` [CXL-1020, N-hydroxy-2-methanesulfonylbenzene-1-sulfonamide, reference compound]: the “hemodynamic effects in patients with systolic heart failure” value in series [1] (intravenous aqueous solution at pH=4) was “reduced both left and right heart filling pressures and systemic vascular resistance, while increasing cardiac and stroke volume index”. Besides, the “side effects at threshold doses needed to produce hemodynamic effects” value in series [1] (intravenous) is “unacceptable levels of inflammatory irritation at and distal to the intravenous insertion site”. For the same compound, the dose rate tolerated in series [2] (14-day continuous infusion, dogs) was determined as 60 µg/kg/min. Besides, the “side effects in follow-up 14-day study” value in series [2] (dog, in vivo) was “significant swelling and inflammation in the dogs' hind limbs”.
In the case of `CS(=O)(=O)c1cccc(S(=O)(=O)NO)c1` [Compound 2, N-Hydroxy-3-methanesulfonylbenzene-1-sulfonamide], in series [3] (1 mg/mL in D5W with 20 mM phosphate), the osmolality entry was “approximately 350 mOsm/kg”. For the same compound, the visual appearance entry in series [3] (5 mg/mL in D2.5W with 5 mM phosphate (pH 6.0), after 48 hours at 25° C.) was “clear, light yellow”.
